We go through 7 compounds from patent publication US11807649B2, “Fused tetracyclic quinazoline derivatives as inhibitors of ErbB2” (EnLiven Therapeutics, Inc., priority 2021, dated 2023).

Type in all cases: cell-based
In assay [1] the target is phosphorylated ERBB2 (pERBB2) (Homo sapiens (Human), UniProt P04626). The experiment in a line: Detection of phosphorylated ERBB2 (pERBB2) by ELISA in BT-474 cells. Conditions: four hours incubation with compound. As to the method:
BT-474 cells were seeded into a 96-well at 2.0*10^4 cells/100 μl/well. Compounds were dissolved and serially diluted in DMSO. The compounds were then were added, mixed, and incubated for four hours at 37° C., 5% CO2. […] Following the four hour incubation with compounds, cell lysates were prepared. Plates were centrifuged for 5 min at 3000 RPM, and supernatant was removed from each well. Cells were washed 3 times by resuspension in 150 μl PBS, followed by centrifugation and removal of the supernatant, as above. 100 μl of cell lysis buffer (Boston BioProducts, cat #BP-115D) supplied with 1× complete ULTRA cocktail inhibitor (Thermo ScientificTM, cat #78443) was then added to the washed cells. Cells were incubated with lysis buffer for 1 hour at 4° C., and then stored at -80° C. Enzyme-linked immunosorbent assays (ELISA) were performed to measure phosphorylated ERBB2 levels. […] The next day, plates were washed with PBS+0.05% Tween20 (PBST). 150 μl of 5% BSA blocking solution was added for 1 hour at room temperature, with shaking. Plates were washed with PB ST. Cell lysates were thawed and 100 μl of lysate was added to the ELISA plate. The plates were incubated for 2 hours at room temperature, with shaking. ELISA plates were then washed with PBST and 100 μl of an HRP-labeled detection antibody that binds phosphorylated tyrosine (R&D Systems, cat #841913) was added to each well. Plates were incubated for 1 hour at room temperature, with shaking. Plates were then washed with PBST, and 100 μl TMB substrate solution (R&D Systems, cat #DY999) was added. Plate were incubated in the dark for 20 minutes at room temperature. 50 μl of Stop solution (R&D Systems, cat #DY994) (50 μl) was added to each well and mixed. […] The remaining kinase activity by calculated using the following formula: % Relative activity=100×([…]). The low and high control values (“LC” and “HC”) were generated from lysate from wells without cells or with cells treated with 0.1% DMSO, respectively.
In general terms: ELISA stands for enzyme-linked immunosorbent assay.

The test system of assay [2] is Ba/F3 ERBB2 YVMA. Put plainly: Cell viability assay (CellTiter Glo), Ba/F3 cells engineered to express ERBB2 YVMA. Conditions: Mus musculus, BaF3, 72 h. On the technique in general: In ATP-based viability assays light output follows the ATP content of the culture.
Assay [3] addresses phosphorylated EGFR (pEGFR) (Homo sapiens (Human), UniProt P00533). The experiment in a line: Detection of phosphorylated EGFR (pEGFR) in EGF-stimulated A431 cells (AlphaLISA). The following applies: A431 cells (10% FBS), 4 hours incubation, then EGF 30 ng/mL for 10 minutes. The method, then:
[…] were performed to measure phosphorylated EGFR levels using A431 cells (10% FBS). A431 (1.0*10^4 cells/40 μl/well) cells were seeded in 384 well. Compounds were dissolved in DMSO, serially diluted in DMSO and then were added, mixed, and incubated for 4 hours at 37° C., 5% CO2. Following the 4-hours incubation, cells were stimulated for 10 minutes with EGF (Invitrogen, cat #PHG0311) at a final concentration of 30 ng/mL in the incubator. The media was aspirated and cells were lysed in […] lysis buffer with protease and phosphatase inhibitors (PerkinElmer, cat #ALSU-PEGFR-A50K). The plates were placed on a shaker for 5 minutes and then incubated for 30 min at 4° C. for complete lysis. The lysate was transferred to an Optiplate (Perkin Elmer, cat #6007290).
Acceptor mix (PerkinElmer, cat #ALSU-PEGFR-A50K) was prepared just before use and 5 μL was dispensed to all the wells, followed by a 1.5-2 h incubation at room temperature in dark. The donor mix (PerkinElmer, cat #ALSU-PEGFR-A50K) was prepared under low light conditions prior to use and […] of donor mix was added to all the wells under subdued lighting or green filters. The plates were placed on a shaker for 5 min, sealed, and incubated overnight at room temperature in dark. Plates were read on the Envision (PerkinElmer) using standard AlphaLISA settings.
The percentage of inhibition on EGFR phosphorylation was calculated following equation: % Inhibition=100×(LumHC−LumSample)/(LumHC−LumLC). The low and high controls (LC/HC) are generated from lysate from wells with cells treated with DMSO or […] Staurosporine (BioAustralis, cat #BIA-S1086), […]. IC50 values were calculated by fitting the Curve using XLfit (v5.3.1.3), equation 201: Y=Bottom+(Top−Bottom)/(1+10^((Log IC50−X)*HillSlope)).

The mark [4] stands for this setting: Ba/F3 cells expressing human ERBB2 YVMA mutant, 72 hours, cell viability, CellTiter Glo, read-out: Ba/F3 ERBB2 YVMA, IC50.
Where [5] appears, read: read-out: Ba/F3 ERBB2 YVMA, IC50, nM.

SMILES strings stand for the structures. Read-outs that look alike come from different tables or passages of the source.

Sequence of phosphorylated EGFR (pEGFR) (P00533 25-1210): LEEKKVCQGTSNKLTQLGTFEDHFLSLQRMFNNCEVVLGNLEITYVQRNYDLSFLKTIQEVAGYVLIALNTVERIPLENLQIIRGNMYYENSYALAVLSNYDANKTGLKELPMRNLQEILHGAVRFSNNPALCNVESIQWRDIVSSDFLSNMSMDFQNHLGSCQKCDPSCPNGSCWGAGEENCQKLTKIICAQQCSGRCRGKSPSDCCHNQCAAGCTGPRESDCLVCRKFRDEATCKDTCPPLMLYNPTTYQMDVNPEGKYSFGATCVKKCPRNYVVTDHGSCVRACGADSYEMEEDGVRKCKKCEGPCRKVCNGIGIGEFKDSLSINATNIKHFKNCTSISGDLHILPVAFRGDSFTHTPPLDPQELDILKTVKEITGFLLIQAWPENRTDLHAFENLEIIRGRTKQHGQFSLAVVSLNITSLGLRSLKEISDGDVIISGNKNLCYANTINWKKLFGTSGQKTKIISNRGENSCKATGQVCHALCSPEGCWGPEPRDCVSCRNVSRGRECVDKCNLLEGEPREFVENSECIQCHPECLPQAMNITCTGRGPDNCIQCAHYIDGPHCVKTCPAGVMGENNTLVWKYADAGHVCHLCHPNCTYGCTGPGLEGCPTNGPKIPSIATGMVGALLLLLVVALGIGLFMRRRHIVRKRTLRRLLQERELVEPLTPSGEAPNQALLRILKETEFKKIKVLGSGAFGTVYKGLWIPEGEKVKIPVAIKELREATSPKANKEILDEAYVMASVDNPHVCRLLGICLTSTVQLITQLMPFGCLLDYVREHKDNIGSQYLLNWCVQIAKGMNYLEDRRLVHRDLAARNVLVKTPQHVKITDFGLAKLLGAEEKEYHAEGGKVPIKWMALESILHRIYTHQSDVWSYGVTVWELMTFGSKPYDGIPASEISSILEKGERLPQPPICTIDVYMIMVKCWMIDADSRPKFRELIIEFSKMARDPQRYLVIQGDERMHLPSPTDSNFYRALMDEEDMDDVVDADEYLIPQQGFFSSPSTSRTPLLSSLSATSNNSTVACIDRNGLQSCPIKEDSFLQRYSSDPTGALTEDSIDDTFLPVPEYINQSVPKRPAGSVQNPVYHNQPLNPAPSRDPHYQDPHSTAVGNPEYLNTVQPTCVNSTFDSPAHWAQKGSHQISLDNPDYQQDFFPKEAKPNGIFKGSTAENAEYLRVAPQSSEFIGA
Sequence of phosphorylated ERBB2 (pERBB2) (P04626 23-1255): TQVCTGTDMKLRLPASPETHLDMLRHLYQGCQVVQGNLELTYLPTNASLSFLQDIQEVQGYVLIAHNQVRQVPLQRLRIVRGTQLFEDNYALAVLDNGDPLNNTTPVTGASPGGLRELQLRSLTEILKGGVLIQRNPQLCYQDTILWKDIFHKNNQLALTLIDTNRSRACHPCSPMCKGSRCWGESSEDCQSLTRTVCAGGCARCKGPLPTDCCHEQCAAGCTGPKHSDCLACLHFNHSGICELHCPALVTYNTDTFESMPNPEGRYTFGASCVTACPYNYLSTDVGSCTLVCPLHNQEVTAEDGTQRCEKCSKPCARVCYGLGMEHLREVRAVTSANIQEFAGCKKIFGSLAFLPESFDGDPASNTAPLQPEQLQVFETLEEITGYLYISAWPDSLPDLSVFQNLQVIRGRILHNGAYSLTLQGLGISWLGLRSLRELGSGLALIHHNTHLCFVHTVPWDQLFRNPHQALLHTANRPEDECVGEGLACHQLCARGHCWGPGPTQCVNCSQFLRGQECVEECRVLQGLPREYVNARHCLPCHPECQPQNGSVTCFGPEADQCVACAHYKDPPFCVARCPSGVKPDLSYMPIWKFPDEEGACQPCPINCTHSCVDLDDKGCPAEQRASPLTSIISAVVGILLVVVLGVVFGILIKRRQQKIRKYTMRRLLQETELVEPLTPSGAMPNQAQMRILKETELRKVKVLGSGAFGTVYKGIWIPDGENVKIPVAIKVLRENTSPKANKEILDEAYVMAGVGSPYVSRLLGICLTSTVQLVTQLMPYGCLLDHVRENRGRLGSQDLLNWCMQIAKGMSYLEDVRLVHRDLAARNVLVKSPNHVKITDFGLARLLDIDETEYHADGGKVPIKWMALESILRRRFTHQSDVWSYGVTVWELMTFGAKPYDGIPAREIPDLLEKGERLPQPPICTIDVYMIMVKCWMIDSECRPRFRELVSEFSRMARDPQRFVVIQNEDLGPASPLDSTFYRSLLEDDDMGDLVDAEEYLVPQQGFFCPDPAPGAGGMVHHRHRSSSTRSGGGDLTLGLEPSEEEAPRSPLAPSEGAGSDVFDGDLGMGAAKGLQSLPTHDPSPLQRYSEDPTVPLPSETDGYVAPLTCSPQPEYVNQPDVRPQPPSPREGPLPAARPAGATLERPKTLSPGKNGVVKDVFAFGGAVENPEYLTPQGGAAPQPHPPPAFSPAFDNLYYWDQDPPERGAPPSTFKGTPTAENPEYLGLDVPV

For the compound `Cc1cc(Nc2ncnc3cc4c(nc23)N2CCCN(C(=O)/C=C/CN(C)C)C(CO4)C2)ccc1Oc1ccn2ncnc2c1` (racemic) [Compound 54, (E)-1-(4-((4-([1,2,4]triazolo[1,5-a]pyridin-7-yloxy)-3-methylphenyl)amino)-8,9,11,12-tetrahydro-6,11-methanopyrimido[4′,5′:5,6]pyrido[3,2-b][1,4,8]oxadiazecin-10(7H)-yl)-4-(dimethylamino)but-2-en-1-one], the IC50 was 29.2 nM in assay [1], 8.66 nM in assay [2] (setting [4]) and above 10000 nM in assay [3].
Regarding `C=CC(=O)N1CCN2C[C@H]1COc1cc3ncnc(Nc4ccc(Cc5ccn6ncnc6c5)c(C)c4)c3nc12` [Compound 13, 1-((10S)-4-((4-([1,2,4]triazolo[1,5-a]pyridin-7-ylmethyl)-3-methylphenyl)amino)-7,8,10,11-tetrahydro-9H-6,10-methanopyrimido[4′,5′:5,6]pyrido[3,2-b][1,4,7]oxadiazonin-9-yl)prop-2-en-1-one], the IC50 in assay [1] was determined as 15.8 nM; in assay [2] (setting [5]) it was 8.92 nM; in assay [3], 1580 nM.
`C=CC(=O)N1CCN2C[C@@H]1COc1cc3ncnc(Nc4ccc(Cc5ccn6ncnc6c5)c(C)c4)c3nc12` [Compound 19]: the IC50 in assay [2] (setting [5]) is above 500 nM; in assay [3], above 10000 nM.
Regarding `[2H]C([2H])([2H])N(C/C=C/C(=O)N1CCN2C[C@H]1COc1cc3ncnc(Nc4cc(C)c(Oc5ccn6ncnc6c5)cc4F)c3nc12)C([2H])([2H])[2H]` [Compound 46, (E)-1-((10S)-4-((4-([1,2,4]triazolo[1,5-a]pyridin-7-yloxy)-2-fluoro-5-methylphenyl)amino)-7,8,10,11-tetrahydro-9H-6,10-methanopyrimido[4′,5′:5,6]pyrido[3,2-b][1,4,7]oxadiazonin-9-yl)-4-(bis(methyl-d3)amino)but-2-en-1-one], the IC50 in assay [1] was determined as 6.84 nM; in assay [2] (setting [5]) it was 7.04 nM; in assay [3], 2470 nM.
Regarding `[2H]C([2H])([2H])N(C/C=C/C(=O)N1CCN2C[C@H]1COc1cc3ncnc(Nc4ccc(Oc5ccn6ncnc6c5)c(C)c4)c3nc12)C([2H])([2H])[2H]` [Compound 36, (E)-1-((10S)-4-((4-([1,2,4]triazolo[1,5-a]pyridin-7-yloxy)-3-methylphenyl)amino)-7,8,10,11-tetrahydro-9H-6,10-methanopyrimido[4′,5′:5,6]pyrido[3,2-b][1,4,7]oxadiazonin-9-yl)-4-(bis(methyl-d3)amino)but-2-en-1-one formic acid], the IC50 in assay [1] was determined as 9.92 nM; in assay [2] (setting [5]), 6.19 nM; in assay [3], 1620 nM.
As to `[2H]C([2H])([2H])N(C([2H])([2H])[2H])C([2H])([2H])/C=C/C(=O)N1CCN2C[C@H]1COc1cc3ncnc(Nc4cc(C)c(Oc5ccn6ncnc6c5)cc4F)c3nc12` [Compound 59, (E)-1-((10S)-4-((4-([1,2,4]triazolo[1,5-a]pyridin-7-yloxy)-2-fluoro-5-methylphenyl)amino)-7,8,10,11-tetrahydro-9H-6,10-methanopyrimido[4′,5′:5,6]pyrido[3,2-b][1,4,7]oxadiazonin-9-yl)-4-(bis(methyl-d3)amino)but-2-en-1-one-4,4-d2], the figures for the IC50 in assay [1], in assay [2] (setting [4]) and in assay [3] were 9 nM, 6.5 nM and 1380 nM, respectively.
Turning to `[2H]C([2H])(/C=C/C(=O)N1CCN2C[C@H]1COc1cc3ncnc(Nc4cc(C)c(Oc5ccn6ncnc6c5)cc4F)c3nc12)N(C)C` [Compound 58, (E)-1-((10S)-4-((4-([1,2,4]triazolo[1,5-a]pyridin-7-yloxy)-2-fluoro-5-methylphenyl)amino)-7,8,10,11-tetrahydro-9H-6,10-methanopyrimido[4′,5′:5,6]pyrido[3,2-b][1,4,7]oxadiazonin-9-yl)-4-(dimethylamino)but-2-en-1-one-4,4-d2], the IC50 in assay [1] is 5.5 nM; in assay [2] (setting [4]), 7.79 nM; in assay [3], 869 nM.
